The text below walks through data of US4259328A, “Morpholino pyridazinylhydrazones” (Richter Gedeon Vegyeszeti Gyar Rt, priority 1977, dated 1981).

Like-named read-outs stand apart in the source and are kept apart here. A value given as a limit tells only on which side of the number the result lay.

Series [1] relates to spontaneous hypertensive rats (Wistar-Okamoto rats). The series can be described thus: Blood pressure lowering activity, systolic blood pressure of waking spontaneous hypertensive rats, oral. In kind it is in vivo, rat. Conditions: for change in vivo at 50 mg/kg / change in vivo at 20 mg/kg / change in vivo at 1.25 mg/kg: Rattus norvegicus, read-out: Reduction in blood pressure; for change in vivo at 50 mg/kg / change in vivo at 20 mg/kg / change in vivo at 1.25 mg/kg / Reduction in blood pressure: oral; for significant blood pressure lowering activity: ≥-15%; for change in vivo at 50 mg/kg / Reduction in blood pressure: 50 mg/kg. The protocol: Blood pressure lowering activity of the new compounds according to the invention was tested on spontaneous hypertensive rats (Wistar-Okamoto rats) following the method described in Arzn. Forsch., 6, 222 (1956). Systolic blood pressure of waking animals was measured in arteria caudalis 4, 24, 48 and 72 hours after the oral administration of the test compounds.

Series [2] concerns the target T1, tyrosine-hydroxylase (Rattus norvegicus, UniProt P04177).
T1 construct: on rat adrenal homogenate; from tissue; host or cells: rat adrenal homogenate
As to the kind of experiment: In vitro tyrosine-hydroxylase inhibiting activity (TH) on rat adrenal homogenate. The following applies: read-out: Enzyme inhibiting activity, TH; for inhibition at 100 µM: 10^-4 mole/liter; for inhibition at 10 µM: 10^-5 mole/liter. It is filed as biochemical. The protocol: In vitro tyrosine-hydroxylase inhibiting activity (TH inhibiting activity) of the new compounds according to the invention was tested by the method of Nagatsu [Anal. Biochem., 9, 122 (1964)] on rat adrenal homogenate. Radioactive tyrosine was purified by the method elaborated by Ikeda [J. Biol. Chem., 241, 4452 (1966)]. TH activity of the rat adrenal homogenate amounted to […] nmoles/mg protein/60 min.
(§1) Inhibiting effect of several compounds encompassed by the formula I in comparison with some known compounds is listed in the following Table I.

Series [3] deals with T2, dopamine-β-hydroxylase (Bos taurus, UniProt P15101).
T2 construct: from tissue; host or cells: bovine adrenal (gland) preparations
T2 sequence (P15101 1-610): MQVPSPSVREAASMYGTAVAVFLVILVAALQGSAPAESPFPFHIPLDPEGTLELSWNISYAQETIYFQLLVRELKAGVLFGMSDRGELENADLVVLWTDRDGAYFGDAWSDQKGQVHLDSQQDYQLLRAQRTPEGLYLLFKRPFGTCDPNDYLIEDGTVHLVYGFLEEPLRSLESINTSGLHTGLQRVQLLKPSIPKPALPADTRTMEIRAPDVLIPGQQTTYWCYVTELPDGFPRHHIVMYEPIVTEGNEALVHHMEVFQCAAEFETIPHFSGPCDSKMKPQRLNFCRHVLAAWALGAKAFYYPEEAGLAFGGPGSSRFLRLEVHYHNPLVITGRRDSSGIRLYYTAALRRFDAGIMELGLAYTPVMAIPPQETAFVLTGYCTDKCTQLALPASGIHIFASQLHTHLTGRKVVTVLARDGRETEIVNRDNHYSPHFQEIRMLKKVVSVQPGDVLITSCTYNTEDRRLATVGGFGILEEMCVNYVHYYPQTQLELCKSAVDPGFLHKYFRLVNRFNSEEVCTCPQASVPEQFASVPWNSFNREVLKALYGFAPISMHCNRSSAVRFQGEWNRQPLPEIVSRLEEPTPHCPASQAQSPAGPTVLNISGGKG
The series can be described thus: Dopamine-β-hydroxylase inhibiting activity (DBH) on bovine adrenal (gland) preparations. Conditions: read-out: Enzyme inhibiting activity, DBH; for inhibition at 100 µM: 10^-4 mole/liter; for inhibition at 10 µM: 10^-5 mole/liter. In kind it is biochemical. As to the method:
Dopamine-β-hydroxylase inhibiting activity (DBH inhibiting activity) of the compounds according to the invention was tested on bovine adrenal (gland) preparations by a modified version of Nagatsu's method [B.B. Acta, 139 319 (1967)].
as §1

Series [4] can be described thus: Acute toxicity (LD50) on mice. The following applies: mouse, in vivo, po.
For series [5], the system named is mice. As to the kind of experiment: Acute toxicity (LD50) on mice. The following applies: i.p.

T1 sequence (P04177 whole entry): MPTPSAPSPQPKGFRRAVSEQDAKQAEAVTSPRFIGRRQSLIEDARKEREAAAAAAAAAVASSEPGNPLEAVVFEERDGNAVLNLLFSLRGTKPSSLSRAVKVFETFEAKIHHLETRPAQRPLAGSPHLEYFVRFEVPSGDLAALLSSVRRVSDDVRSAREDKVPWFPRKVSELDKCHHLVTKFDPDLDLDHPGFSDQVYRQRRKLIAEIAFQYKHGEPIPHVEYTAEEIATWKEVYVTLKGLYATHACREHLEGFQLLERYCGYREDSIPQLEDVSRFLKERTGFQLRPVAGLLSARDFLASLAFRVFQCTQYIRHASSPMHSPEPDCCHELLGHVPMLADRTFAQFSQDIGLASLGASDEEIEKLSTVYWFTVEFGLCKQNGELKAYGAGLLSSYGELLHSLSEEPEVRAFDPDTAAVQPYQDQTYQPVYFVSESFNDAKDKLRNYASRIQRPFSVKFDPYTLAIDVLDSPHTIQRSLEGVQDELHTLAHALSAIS

With `CCOC(=O)C1CCCCC1=NNc1ccc(Cl)nn1` (stereo not drawn) [Example 17, 2-(Ethoxycarbonyl)-1-cyclohexylidene-3-chloro-6-pyridazinylhydrazone], the change in vivo at 50 mg/kg in series [1] (4 hours) was -23%; in series [1] (24 hours) it was -13%. Also, in series [1], the “significant blood pressure lowering activity” value is given as at least -15%. In addition, the inhibition at 100 µM in series [2] was 85%; in series [3], 70%. In addition, the results for the inhibition at 10 µM in series [2] and in series [3] were 33% and 10%, respectively. For the same compound, the LD50 in series [4] was 300 mg/kg.
Consider `O=C(O)C1CCCCC1=NNc1cccnn1` (stereo not drawn) [Example 19, 2-carboxy-1-cyclohexylidene-3-pyridazinylhydrazone], for which the change in vivo at 50 mg/kg was -8% in series [1] (4 hours) and -9% in series [1] (24 hours). Besides, the inhibition at 100 µM turned out to be 82% in series [2] and 75% in series [3]. The values for the inhibition at 10 µM in series [2] and in series [3] were 30% and 10%, respectively. Moreover, in series [4], the LD50 was above 200 mg/kg.
`CCOC(=O)CC(C)=NNc1ccc(Cl)nn1` [Example 20, 3-(Ethoxycarbonyl)-2-propylidene-(3-chloro-6-pyridazinyl)hydrazone]: the change in vivo at 50 mg/kg in series [1] (4 hours) and in series [1] (24 hours) was -25% in each case. The “significant blood pressure lowering activity” value in series [1] is at least -15%. The inhibition at 100 µM in series [2] and in series [3] was 100% each time. The inhibition at 10 µM in series [2] worked out at 50%; in series [3] it was 87%. In series [4], this compound yielded a 50% lethal dose (LD50) of 530 mg/kg.
Take `CCCOC(=O)CC(C)=NNc1ccc(Cl)nn1` [Example 28, 3-(Propoxycarbonyl)-2-propylidene-3-chloro-6-pyridazinylhydrazone]: the change in vivo at 50 mg/kg was -29% in series [1] (4 hours) and -25% in series [1] (24 hours). Besides, the “significant blood pressure lowering activity” value in series [1] is listed as at least -15%. Moreover, the inhibition at 100 µM stood at 0% in series [2] and 90% in series [3]. The inhibition at 10 µM was determined as 0% in series [2] and 71% in series [3]. In addition, the LD50 in series [4] was above 200 mg/kg.
As for `CC(CC(=O)OC(C)C)=NNc1ccc(Cl)nn1` [Example 29, 3-(Isopropoxycarbonyl)-2-propylidene-3-chloro-6-pyridazinylhydrazone], the change in vivo at 50 mg/kg in series [1] (4 hours) is -30%; in series [1] (24 hours), -15%. In addition, the “duration of blood pressure lowering effect” value in series [1] (dose 20 mg/kg) is 48 h; in series [1] (dose of 50 mg/kg), 72 h. The “significant blood pressure lowering activity” value in series [1] is at least -15%. Moreover, the inhibition at 100 µM was determined as 50% in series [2] and 70% in series [3]. Also, the inhibition at 10 µM in series [2] amounted to 0%; in series [3], 47%. In series [4], this compound gave an LD50 of 250 mg/kg.
In the case of `CC(CC(=O)OC(C)(C)C)=NNc1ccc(Cl)nn1` [Example 30, 3-(tert.-Butoxycarbonyl)-2-propylidene-3-chloro-6-pyridazinylhydrazone], the change in vivo at 50 mg/kg in series [1] (4 hours) was -31%; in series [1] (24 hours), -14%. The “duration of blood pressure lowering effect” value in series [1] (dose 20 mg/kg) was found to be 48 h; in series [1] (dose of 50 mg/kg) it was 72 h. Also, the “significant blood pressure lowering activity” value in series [1] is at least -15%. In addition, the inhibition at 100 µM in series [2] is 50%; in series [3], 70%. Also, the inhibition at 10 µM in series [2] stood at 0%; in series [3] it was 22%. The compound also gave an LD50 in series [4] of 250 mg/kg.
For `CC(CCCC(=O)O)=NNc1ccc(Cl)nn1` [Example 50, 5-Carboxy-2-pentylidene-3-chloro-6-pyridazinylhydrazone], the change in vivo at 20 mg/kg in series [1] (4 hours) was -28%. For the same compound, the change in vivo at 20 mg/kg in series [1] (24 hours) is -30%. In series [1], the “significant blood pressure lowering activity” value is at least -15%. Further, in series [3], the inhibition at 100 µM was 73% and the inhibition at 10 µM stood at 0%. For the same compound, the LD50 in series [4] worked out at 200 mg/kg.
As for `CC(CC(=O)OC(C)(C)C)=NNc1ccc(N2CCOCC2)nn1` [Example 52, 3-(tert.-Butoxycarbonyl)-2-propylidene-3-morpholino-6-pyridazinylhydrazone], the change in vivo at 1.25 mg/kg in series [1] (4 hours) is -21%; in series [1] (24 hours), -9%. Also, the “significant blood pressure lowering activity” value in series [1] is reported as at least -15%. Also, the inhibition at 100 µM in series [2] came out at 65%; in series [3] it was 30%. The inhibition at 10 µM stood at 40% in series [2] and 0% in series [3]. Besides, the LD50 in series [4] stood at 400 mg/kg.
Turning to `CC(CCC(=O)O)=NNc1ccc(C)nn1` [Example 55, 4-Carboxy-2-butylidene-(3-methyl-6-pyridazinyl) hydrazone], the change in vivo at 20 mg/kg in series [1] (4 hours) was -39%. Also, the change in vivo at 20 mg/kg in series [1] (24 hours) was -14%. The “significant blood pressure lowering activity” value in series [1] is listed as at least -15%. Besides, in series [3], the inhibition at 100 µM amounted to 50% and the inhibition at 10 µM came to 0%. Further, the LD50 in series [4] was above 200 mg/kg.
For the compound `CCOC(=O)CCC(C)=NNc1ccc(Cl)nn1` [Example 62, 4-(Ethoxycarbonyl)-2-butylidene-(3-chloro-6-pyridazinl)hydrazone], the change in vivo at 50 mg/kg in series [1] (4 hours) is -29%; in series [1] (24 hours), -26%. Besides, the “significant blood pressure lowering activity” value in series [1] is recorded as at least -15%. Also, the inhibition at 100 µM in series [3] came out at 60%. For the same compound, in series [4], the LD50 came out at 200 mg/kg.
Regarding `COC(=O)CC(=NNc1ccc(Cl)nn1)C(=O)OC` [Example 64, 1,2-di-(methoxycarbonyl)-ethylidene-(3-chloro-6-pyridazinyl)hydrazone], the change in vivo at 50 mg/kg in series [1] (4 hours) was -25%; in series [1] (24 hours) it was -11%. Further, the “significant blood pressure lowering activity” value in series [1] is at least -15%. For the same compound, the inhibition at 100 µM in series [2] is 36%; in series [3] it was 50%. The inhibition at 10 µM in series [2] was 10%; in series [3], 0%. The LD50 in series [4] is above 200 mg/kg.
Take `CCOC(=O)CC=NNc1ccc(Cl)nn1` [Example 65, 2-(Ethoxycarbonyl)-1-ethylidene-(3-chloro-6-pyridazinyl)hydrazone]: in series [1] (4 hours), the change in vivo at 50 mg/kg was -18%. Further, the change in vivo at 50 mg/kg in series [1] (24 hours) was -23%. Besides, the “significant blood pressure lowering activity” value in series [1] is given as at least -15%. In series [3], the inhibition at 100 µM came out at 73% and the inhibition at 10 µM came out at 44%. The compound also registered an LD50 in series [4] above 200 mg/kg.
In the case of Fumaric acid [reference compound], the “Reduction in blood pressure” value is reported as -33% in series [1] (4 hours) and 0% in series [1] (24 hours). For the same compound, the “Acute toxicity [LD50] on mice” value in series [5] worked out at 80 mg/kg.

The LD50 is the dose expected to kill half of the subjects tested.
